Assay [1] deals with T1, SALL4 (Homo sapiens, UniProt Q96SW2+Q9UJQ4).
T1 construct: expressed in transfected cells; host or cells: GripTite 293 MSR cells (293GT), ThermoFisher Scientific, stably transfected by electroporation, blasticidin-selected clones
As to the kind of experiment: Quantification of SALL4 protein levels in HiBiT tag fusion protein assay. It is filed as cell-based. To be noted: for SALL4 Amax: DMSO-normalized, curve-fitted percentage of SALL4-HiBiT remaining at 50 uM, mean over repeats; for DC50: arithmatic mean over number of repeats, 18 hours, top 50 μM, read-out: SALL4 AC50. As to the method:
The HiBiT system from Promega was used to develop high-throughput and quantitative assays to measure changes in SALL4 protein levels in response to compounds. The HiBiT tag was derived from a split Nanoluciferase and has the following protein sequence: […] (SEQ ID No: 1). The complementary fragment of Nanoluciferase (known as LgBiT, from Promega), was added to the HiBiT tag to form an active Nanoluciferase enzyme whose activity can be precisely measured. In this way, the levels of a fusion protein with the HiBiT tag can be quantified in cell lysates.
DNA constructs, based on the Invitrogen pLenti6.2/V5 DEST backbone, were constructed with the HiBiT tag upstream of SALL4 and expressed the fusion protein from a CMV promotor.
To ensure moderate and consistent expression of the HiBiT-SALL4 fusion protein across all cells in the population, stable cell lines were derived from clones. GripTite 293 MSR cells (293GT) from ThermoFisher Scientific (Catalog number: CRL-R79507), were stably transfected with prepared constructs via electroporation. Following recovery, cells were selected by 10 ug/mL blasticidin in culture media.
The levels of HiBiT-SALL4 tagged fusion proteins in compound-treated cell lines were measured as follows:
On day 1, cells were diluted to 1.0×10^6 cells/ml in normal growth medium. 20 μL of cell suspension were plated in each well of a solid white 384-well plate. Plates were incubated overnight in a 37° C. and 5% CO2 humidified tissue culture incubator.
On day 2, serial dilutions of compounds were made in 384-well plates. Compound plates were set up with DMSO in columns 1, 2, 23, 24, and 10-point compound dilution series in column 3-12 and column 13-22. 10 mM stock solution of compound were placed into column 3 or 13 and a 1:5 serial dilution was carried out until there was a 10-point dilution series per compound. 100 nL of diluted compounds were transferred into the plated cells by Echo® (Labcyte) acoustic transfer. The highest concentration of compound was 50 μM. Plates were incubated overnight (18 hours) in a 37° C. and 5% CO2 humidified tissue culture incubator.
On day 3, plates were removed from the incubator and allowed to equilibrate at room temperature for 60 minutes. HiBiT substrate (Nano-Glo® HiBit Lytic Detection System, Promega Catalogue number: N3050) was added as described by the manufacturers protocols. Plates were incubated at room temperature for 30 minutes and luminescence was read using an EnVision® reader (PerkinElmer®). Data was analyzed and visualized using the Spotfire® software package.
SALL4 Amax reflects the DMSO-normalized, curve-fitted percentage of SALL4-HiBiT remaining at 50 uM. It was calculated by normalizing DMSO controls to 100%, parametric curve fitting of the dose response data (10-point, 5-fold), followed by calculation of response at 50 uM using the fitted equation.
This assay produced a range of SALL4 AC50 and Amax values over several repeat runs due to normal variations in the assay. For a comparison to the compounds described in PCT/IB2020/062070, the arithmatic mean values are reported over the number of repeats specified. […] The compounds of the present disclosure are therefore expected to have improved toxicological properties (Matyskiela, M. E., Couto, S., Zheng, X. et al. SALL4 mediates teratogenicity as a thalidomide-dependent cereblon substrate. Nat Chem Biol 14, 981-987 (2018); Donovan, K. A. et al. Thalidomide promotes degradation of SALL4, a transcription factor Implicated in Duane Radial Ray syndrome. eLife 2018; 7:e38430).
(The HiBiT peptide binds its large partner to form an active luciferase.)

The subject of assay [2] is Fetal Hemoglobin (HbF). In words: Small molecule HbF induction assay in erythroid-differentiated mPB CD34+ cells (flow cytometry). It is filed as cell-based, human. The conditions noted are these: highest percentage of cells staining positive for HbF (% HbF+ cells) in fitted dose-response curve; DMSO baseline approximately 30-40%. The method, then: Cryopreserved primary human CD34^+ hematopoietic stem and progenitor cells were obtained from AllCeIIs, LLC. The CD34^+ cells were isolated from the peripheral blood of healthy donors after mobilization by administration of granulocyte colony-stimulating factor. Cells were differentiated ex vivo toward the erythroid lineage using a 2-phase culture method. In the first phase, cells were cultured in Stemspan™ Serum-Free Expansion Media (SFEM) ([…] Technologies Inc.) supplemented with rhSCF (50 ng/mL, Peprotech®, Inc.), rhlL-6 (50 ng/mL, Peprotech®, Inc.), rhlL-3 (50 ng/mL, Peprotech®, Inc.), and rhFlt3L (50 ng/mL, Peprotech®, Inc.), and 1× antibiotic-antimycotic (Life Technologies, Thermo Fisher Scientific) for 6 days at 37° C. with 5% CO2. During the second phase, cells were cultured in erythroid differentiation media at 5,000 cells/mL in the presence of compound for 7 days at 37° C. with 5% […]. Erythroid Differentiation Media is comprised of IMDM (Life Technologies) supplemented with insulin (10 μg/mL. Sigma Aldrich), heparin (2 U/mL Sigma Aldrich), holo-transferrin (330 μg/mL, Sigma Aldrich), human serum AB (5%, Sigma Aldrich), hydrocortisone (1 μM, […] Technologies), rhSCF (100 ng/mL, Peprotech®, Inc.), rhIL-3 (5 ng/mL. Peprotech®, Inc.), rhEPO (3 U/mL, Peprotech®, Inc.), and 1× antibiotic-antimycotic. All compounds were dissolved and diluted into dimethylsulfoxide (DMSO) and were added to culture media for a final concentration of 0.3% DMSO for testing in a 10-point, 1:3 dilution series starting at 10 uM.
For viability analysis, samples were washed and resuspended in phosphate-buffered saline (PBS) and stained with LlVE/DEAD™ Fixable Violet Dead Cell Stain Kit (Life Technologies, L34963) for 20 minutes. Cells were then washed again with PBS and resuspended in PBS supplemented with 2% fetal bovine serum (FBS), and 2 mM EDTA to prepare for cell surface marker analysis. […]
mPB CD34+ cells were expanded for 6 days, then erythroid differentiated in the presence of compound for 7 days. Cells were fixed, stained and analyzed by flow cytometry. […]
(In general: Flow cytometry measures light scatter and fluorescence of single cells or particles in a stream.)

The target in assay [3] is T2, WIZ (Homo sapiens, UniProt O95785+Q96SW2).
T2 construct: expressed in transfected cells
In words: Quantification of WIZ protein levels in HiBit tag fusion protein assay (293T cells). The assay is classed as cell-based. More on the design: Dmax: dose or concentration left out as unconfirmed. The procedure, abridged: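 293T cells stably carrying a single-copy HiBit-WIZ fusion were exposed to compounds for about 18 hours at 37° C., top concentration 25 μM, 10-point 5-fold series. Lysates were complemented with LgBit and luminescence was read. Amax is the DMSO-normalized, curve-fitted percentage of WIZ-HiBit remaining at 25 uM.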

Where [4] appears, read: WIZ HiBit assay in 293T cells, about 18 hours, 10-point 5-fold dilution, top 25 μM; read-out: WIZ AC50.
The mark [5] stands for this setting: HEK-293T, read-out: % degradation of WIZ (100 − Amax).

SMILES strings stand for the structures. Read-outs that look alike come from different tables or passages of the source.

T1 sequence (Q9UJQ4 whole entry): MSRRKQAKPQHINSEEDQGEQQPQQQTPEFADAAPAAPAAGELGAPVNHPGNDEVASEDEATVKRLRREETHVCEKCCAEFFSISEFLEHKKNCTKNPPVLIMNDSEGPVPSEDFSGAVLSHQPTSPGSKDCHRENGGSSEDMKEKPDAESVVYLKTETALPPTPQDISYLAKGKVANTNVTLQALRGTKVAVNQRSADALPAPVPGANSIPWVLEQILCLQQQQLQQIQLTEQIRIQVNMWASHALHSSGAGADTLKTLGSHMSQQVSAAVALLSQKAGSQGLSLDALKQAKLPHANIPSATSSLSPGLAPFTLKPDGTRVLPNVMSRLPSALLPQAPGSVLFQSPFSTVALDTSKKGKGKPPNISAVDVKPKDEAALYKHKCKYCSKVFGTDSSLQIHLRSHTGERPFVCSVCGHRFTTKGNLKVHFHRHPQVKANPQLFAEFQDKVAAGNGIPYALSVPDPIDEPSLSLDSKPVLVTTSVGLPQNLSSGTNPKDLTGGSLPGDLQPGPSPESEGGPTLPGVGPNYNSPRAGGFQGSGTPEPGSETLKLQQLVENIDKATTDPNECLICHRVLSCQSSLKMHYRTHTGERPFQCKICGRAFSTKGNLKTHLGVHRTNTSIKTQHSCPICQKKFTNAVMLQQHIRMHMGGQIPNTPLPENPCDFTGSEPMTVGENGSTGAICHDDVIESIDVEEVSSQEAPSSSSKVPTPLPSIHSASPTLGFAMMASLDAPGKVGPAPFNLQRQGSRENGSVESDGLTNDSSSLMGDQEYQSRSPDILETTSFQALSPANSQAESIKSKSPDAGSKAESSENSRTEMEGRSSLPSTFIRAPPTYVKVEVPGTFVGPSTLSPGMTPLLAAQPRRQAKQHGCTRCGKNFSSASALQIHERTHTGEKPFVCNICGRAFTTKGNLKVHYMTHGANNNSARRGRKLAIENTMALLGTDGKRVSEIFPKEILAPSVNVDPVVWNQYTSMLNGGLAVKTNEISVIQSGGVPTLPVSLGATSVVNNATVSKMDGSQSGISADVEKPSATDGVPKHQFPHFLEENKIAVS
T1 sequence (Q96SW2 whole entry): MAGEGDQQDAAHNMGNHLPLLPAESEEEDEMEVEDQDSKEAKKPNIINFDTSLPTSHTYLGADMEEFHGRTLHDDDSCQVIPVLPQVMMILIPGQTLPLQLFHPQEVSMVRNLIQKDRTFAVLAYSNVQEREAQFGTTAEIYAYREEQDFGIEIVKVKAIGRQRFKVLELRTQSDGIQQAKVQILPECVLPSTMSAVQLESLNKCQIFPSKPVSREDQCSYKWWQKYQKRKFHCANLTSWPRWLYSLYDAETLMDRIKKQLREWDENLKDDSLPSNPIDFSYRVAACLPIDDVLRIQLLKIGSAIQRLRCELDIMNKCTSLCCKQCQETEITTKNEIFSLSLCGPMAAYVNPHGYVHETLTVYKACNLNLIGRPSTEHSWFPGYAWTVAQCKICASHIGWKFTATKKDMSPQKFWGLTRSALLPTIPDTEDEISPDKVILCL
T1 sequence (Q16531 whole entry partner): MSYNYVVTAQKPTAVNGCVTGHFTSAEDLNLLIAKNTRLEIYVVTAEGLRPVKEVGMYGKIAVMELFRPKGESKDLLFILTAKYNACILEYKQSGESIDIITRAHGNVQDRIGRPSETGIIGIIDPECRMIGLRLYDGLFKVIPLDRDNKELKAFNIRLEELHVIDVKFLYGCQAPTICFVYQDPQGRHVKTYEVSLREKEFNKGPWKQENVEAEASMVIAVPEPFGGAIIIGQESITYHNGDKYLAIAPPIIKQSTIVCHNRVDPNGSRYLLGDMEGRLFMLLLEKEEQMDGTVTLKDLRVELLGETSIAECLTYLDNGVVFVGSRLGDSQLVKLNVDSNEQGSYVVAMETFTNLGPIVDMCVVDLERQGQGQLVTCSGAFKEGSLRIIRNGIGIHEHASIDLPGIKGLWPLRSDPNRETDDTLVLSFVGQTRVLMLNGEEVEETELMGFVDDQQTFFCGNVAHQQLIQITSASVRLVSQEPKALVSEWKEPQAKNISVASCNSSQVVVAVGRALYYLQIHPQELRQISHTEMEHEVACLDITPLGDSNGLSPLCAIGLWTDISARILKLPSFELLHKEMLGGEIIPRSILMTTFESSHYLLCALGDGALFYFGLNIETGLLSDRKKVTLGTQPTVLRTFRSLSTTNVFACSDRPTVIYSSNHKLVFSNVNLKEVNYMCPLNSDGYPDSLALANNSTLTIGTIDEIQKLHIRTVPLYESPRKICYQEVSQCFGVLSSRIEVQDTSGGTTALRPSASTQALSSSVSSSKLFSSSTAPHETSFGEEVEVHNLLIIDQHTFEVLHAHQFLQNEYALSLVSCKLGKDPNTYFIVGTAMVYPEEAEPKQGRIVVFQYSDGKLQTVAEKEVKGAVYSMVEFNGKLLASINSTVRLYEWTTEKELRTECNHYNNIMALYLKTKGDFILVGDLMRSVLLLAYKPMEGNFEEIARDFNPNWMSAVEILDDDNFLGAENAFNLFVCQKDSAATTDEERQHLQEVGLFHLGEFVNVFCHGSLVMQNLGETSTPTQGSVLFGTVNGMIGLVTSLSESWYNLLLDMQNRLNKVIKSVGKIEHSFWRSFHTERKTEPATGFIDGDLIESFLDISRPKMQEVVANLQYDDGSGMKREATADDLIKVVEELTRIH
T2 sequence (O95785 whole entry): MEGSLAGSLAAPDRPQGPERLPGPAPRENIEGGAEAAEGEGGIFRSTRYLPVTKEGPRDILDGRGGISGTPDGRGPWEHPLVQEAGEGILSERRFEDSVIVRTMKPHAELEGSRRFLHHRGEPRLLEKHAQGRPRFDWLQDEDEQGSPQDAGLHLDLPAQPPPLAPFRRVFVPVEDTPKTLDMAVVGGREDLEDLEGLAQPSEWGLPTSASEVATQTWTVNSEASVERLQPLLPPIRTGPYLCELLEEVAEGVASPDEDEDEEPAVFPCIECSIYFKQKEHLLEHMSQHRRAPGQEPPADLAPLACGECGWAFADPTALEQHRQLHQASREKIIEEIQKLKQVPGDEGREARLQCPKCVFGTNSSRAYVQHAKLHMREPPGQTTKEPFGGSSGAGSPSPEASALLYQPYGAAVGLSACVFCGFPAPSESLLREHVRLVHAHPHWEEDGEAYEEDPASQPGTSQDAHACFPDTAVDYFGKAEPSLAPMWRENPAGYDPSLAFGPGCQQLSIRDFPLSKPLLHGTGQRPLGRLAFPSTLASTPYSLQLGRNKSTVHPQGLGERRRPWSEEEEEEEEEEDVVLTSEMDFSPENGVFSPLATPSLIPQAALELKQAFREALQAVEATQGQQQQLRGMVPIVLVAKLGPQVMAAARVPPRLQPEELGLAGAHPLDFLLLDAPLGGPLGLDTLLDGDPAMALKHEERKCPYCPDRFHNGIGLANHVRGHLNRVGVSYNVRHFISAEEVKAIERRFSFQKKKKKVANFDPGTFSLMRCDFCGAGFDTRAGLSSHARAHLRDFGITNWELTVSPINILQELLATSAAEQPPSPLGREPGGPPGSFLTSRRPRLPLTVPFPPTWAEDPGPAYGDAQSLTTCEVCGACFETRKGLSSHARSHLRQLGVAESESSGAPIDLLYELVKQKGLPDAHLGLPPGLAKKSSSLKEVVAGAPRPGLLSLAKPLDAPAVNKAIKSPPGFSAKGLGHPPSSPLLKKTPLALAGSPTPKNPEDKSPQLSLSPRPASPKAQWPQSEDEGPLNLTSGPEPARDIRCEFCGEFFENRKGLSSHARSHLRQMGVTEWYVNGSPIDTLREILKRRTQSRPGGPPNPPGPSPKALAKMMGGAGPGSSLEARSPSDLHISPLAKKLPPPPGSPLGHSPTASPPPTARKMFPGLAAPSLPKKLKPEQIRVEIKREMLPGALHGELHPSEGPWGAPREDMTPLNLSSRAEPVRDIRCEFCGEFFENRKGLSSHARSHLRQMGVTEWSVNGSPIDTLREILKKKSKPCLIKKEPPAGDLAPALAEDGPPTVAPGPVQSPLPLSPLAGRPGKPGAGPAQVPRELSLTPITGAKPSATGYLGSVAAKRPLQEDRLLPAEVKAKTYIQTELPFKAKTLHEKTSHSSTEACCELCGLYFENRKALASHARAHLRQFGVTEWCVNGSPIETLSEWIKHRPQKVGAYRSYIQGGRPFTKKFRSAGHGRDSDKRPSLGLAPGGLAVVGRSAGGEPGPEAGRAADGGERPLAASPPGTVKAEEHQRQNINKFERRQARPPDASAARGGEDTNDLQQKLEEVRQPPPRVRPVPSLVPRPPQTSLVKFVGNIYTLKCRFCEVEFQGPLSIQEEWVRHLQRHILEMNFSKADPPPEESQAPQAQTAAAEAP
T2 sequence (Q96SW2 whole entry): as the sequence (Q96SW2 whole entry) above
T2 sequence (Q16531 whole entry partner): as the sequence (Q16531 whole entry partner) above

On to `CCN1CCCC[C@@H]1COc1ccc2c(c1)CN(C1CCC(=O)NC1=O)C2=O` (mixture of isomers) [Comparative Example 1, 3-(5-(((R)-1-ethylpiperidin-2-yl)methoxy)-1-oxoisoindolin-2-yl)piperidine-2,6-dione, reference compound], for which, in assay [1], the “SALL4 Amax” value was 51.51% and the DC50 is 160 nM. The “HbF Amax” value in assay [2] was found to be 64.1%.
For `O=C1CCC(N2Cc3cc(OC[C@H]4CCCCN4CC4CC4)ccc3C2=O)C(=O)N1` (stereo partly drawn) [Comparative Example 3, 3-(5-(((R)-1-(cyclopropylmethyl)piperidin-2-yl)methoxy)-1-oxoisoindolin-2-yl)piperidine-2,6-dione, reference compound], in assay [1], the “SALL4 Amax” value stood at 52.88% and the DC50 amounted to 130 nM.
Take `O=C1CCC(N2Cc3cc(O[C@@H]4CCCN(CC5CC5)C4)ccc3C2=O)C(=O)N1` (stereo partly drawn) [Example 13, 3-(5-(((R)-1-(cyclopropylmethyl)piperidin-3-yl)oxy)-1-oxoisoindolin-2-yl)piperidine-2,6-dione]: the remaining activity at 25 µM in assay [3] (HEK-293T; DMSO-normalized, curve-fitted percentage of WIZ-HiBit remaining at 25 uM; read-out: WIZ Amax) came to 27.6%. Besides, the Dmax at 25 µM in assay [3] (HEK-293T; at 25 uM, 100 − Amax; read-out: % degradation of WIZ (100 − Amax)) was determined as 72.4%. In addition, the DC50 worked out at 14 nM in assay [3] (setting [4]); 21 nM in assay [3] (updated arithmatic mean over the number of repeats specified, assay of Example 89; read-out: WIZ AC50); 140 nM in assay [1]. Moreover, the “SALL4 Amax” value in assay [1] is 70.82%.
For `CCN1C[C@H](Oc2ccc3c(c2)CN(C2CCC(=O)NC2=O)C3=O)CC[C@@H]1C` (stereo partly drawn) [Example 41, 3-(5-(((3R,6S)-1-ethyl-6-methylpiperidin-3-yl)oxy)-1-oxoisoindolin-2-yl)piperidine-2,6-dione], in assay [3] (setting [5]), the Dmax is 88.6%. In addition, the remaining activity at 25 µM in assay [3] (HEK-293T, read-out: WIZ Amax) stood at 11.4%. The DC50 in assay [3] (read-out: WIZ AC50; WIZ HiBit assay in 293T cells, about 18 hours, 10-point 5-fold dilution, top 25 μM) worked out at 0.14 nM. In addition, the “HbF Amax” value in assay [2] was 73.1%.
As to `CC1(C)CCC(Oc2ccc3c(c2)CN(C2CCC(=O)NC2=O)C3=O)CN1` (stereo not drawn) [Example 88-1, 3-(5-((6,6-dimethylpiperidin-3-yl)oxy)-1-oxoisoindolin-2-yl)piperidine-2,6-dione], in assay [3] (setting [5]), the Dmax is 50%. Further, in assay [3] (HEK-293T, read-out: WIZ Amax), the remaining activity at 25 µM stood at 50%. Also, in assay [3] (setting [4]), the DC50 amounted to 134 nM.
In the case of `CCN1CC(Oc2ccc3c(c2)CN(C2CCC(=O)NC2=O)C3=O)CCC1(C)C` (stereo not drawn) [Example 88-2, 3-(5-((1-ethyl-6,6-dimethylpiperidin-3-yl)oxy)-1-oxoisoindolin-2-yl)piperidine-2,6-dione], in assay [3] (setting [5]), the Dmax was 79.5%. Also, in assay [3] (HEK-293T, read-out: WIZ Amax), the remaining activity at 25 µM worked out at 20.5%. In assay [3] (setting [4]), the DC50 amounted to 0.7 nM.

The record behind these values is patent publication US12103919B2, “3-(5-oxy)-1-oxoisoindolin-2-yl)piperidine-2,6-dione derivatives and uses thereof” (NOVARTIS AG, priority 2021, dated 2024).
